Among the data in patent US20190256509A1, “HISTONE DEMETHYLASE INHIBITORS” (CHRYSALIS, INC., priority 2016, published 2019) are IC50 values, retold here.

Each structure is given as a SMILES string. Where only a bound is given, the exact number is not on record here.

By IC50 is commonly meant the concentration needed to halve the response being measured. Read a high IC50 as weaker potency in that assay.

This assay has as its target T1, KDM5B enzyme (Homo sapiens, UniProt Q9UGL1).
T1 construct: Reaction Biology Corp (named for the assay, not expressly for the enzyme)
The experiment in a line: KDM5B HTRF (TR-FRET) demethylase inhibition assay. The note with it: 1.2 nM KDM5B, 30 nM Biotin-H3K4Me3 1-21 substrate, 10 point dose-response. Type of assay: biochemical. As to the method: Ten point dose-response curves for the compounds of Examples 1-135 were determined using a homogeneous time resolved fluorescence (HTRF) assay (Reaction Biology Corp, Malvern, Pa.). This assay combines fluorescence resonance energy transfer (FRET) with time resolve (TR) measurements (TR-FRET). The KDM5B α-ketoglutarate-dependent demethylase activity is calculated by measuring demethylation of a biotin labeled histone tri-methylated H3K4 substrate using an europium-cryptate (Eu)-labeled antibody donor specific for dimethylated histone H3K4 and a Streptavidin-XL665 acceptor that binds to the biotin group of substrate, and detecting FRET by exciting the reaction mixture at 320 nm and reading dual emissions at 615 nm and 665 nm.
Briefly, compounds disclosed herein were solubilized in DMSO and a series of 10, three-fold serial dilutions were made for each compound in 100% DMSO. The initial starting concentration for the serial dilutions of each compound was 10 μM or 100 μM. Control samples lacking compound, KDM5B enzyme or various reaction components also were prepared and processed in parallel with compound test samples.
An aliquot of each serial dilution of test compound was added to a 384 well plate (Corning Cat #3572) containing 1.2 nM KDM5B enzyme suspended in 50 mM Hepes, pH7.5, 50 mM NaCl, 0.01% Tween 20, 0.1% BSA, and 1% DMSO (final concentrations) in a 10 microliter reaction volume using a LABCYTE ECHO liquid handler. The samples were mixed, subjected to centrifugation and the plate was pre-incubated at room temperature for 15 minutes (min), to which 30 nM Biotin-H3K4Me3 1-21 substrate (Anaspec, Freemont Calif., Cat #64192), 20 μM Fe(II) and 20 μM α-ketoglutarate co-factors, and 100 μM Ascorbate were added to initiate the enzymatic reaction. The reaction mixture was incubated at room temperature for 45 minutes. A 10 μl aliquot of a detection mixture of Eu-labeled anti-histone H3K4Me2 antibody (CisBIO, Bedford Mass., Cat #610AXLB) and Streptavidin-XL665 (CisBIO, Bedford Mass., Cat #610 SAXLB) in 200 mM potassium fluoride and 10 mM EDTA was added and kinetic measurements were read at 5 minute intervals for a period of 30 minutes using an Envision Multiplate Reader (PerkinElmer Model 2102; excitation at 320 nm and emission reads at 615 nm and 665 nm). The IC50 value for each compound was determined from the 665/615 ratio obtained for each 10 point dose-response curve using GraphPad Prism 4 software with a sigmodial dose response.

T1 sequence (Q9UGL1 whole entry): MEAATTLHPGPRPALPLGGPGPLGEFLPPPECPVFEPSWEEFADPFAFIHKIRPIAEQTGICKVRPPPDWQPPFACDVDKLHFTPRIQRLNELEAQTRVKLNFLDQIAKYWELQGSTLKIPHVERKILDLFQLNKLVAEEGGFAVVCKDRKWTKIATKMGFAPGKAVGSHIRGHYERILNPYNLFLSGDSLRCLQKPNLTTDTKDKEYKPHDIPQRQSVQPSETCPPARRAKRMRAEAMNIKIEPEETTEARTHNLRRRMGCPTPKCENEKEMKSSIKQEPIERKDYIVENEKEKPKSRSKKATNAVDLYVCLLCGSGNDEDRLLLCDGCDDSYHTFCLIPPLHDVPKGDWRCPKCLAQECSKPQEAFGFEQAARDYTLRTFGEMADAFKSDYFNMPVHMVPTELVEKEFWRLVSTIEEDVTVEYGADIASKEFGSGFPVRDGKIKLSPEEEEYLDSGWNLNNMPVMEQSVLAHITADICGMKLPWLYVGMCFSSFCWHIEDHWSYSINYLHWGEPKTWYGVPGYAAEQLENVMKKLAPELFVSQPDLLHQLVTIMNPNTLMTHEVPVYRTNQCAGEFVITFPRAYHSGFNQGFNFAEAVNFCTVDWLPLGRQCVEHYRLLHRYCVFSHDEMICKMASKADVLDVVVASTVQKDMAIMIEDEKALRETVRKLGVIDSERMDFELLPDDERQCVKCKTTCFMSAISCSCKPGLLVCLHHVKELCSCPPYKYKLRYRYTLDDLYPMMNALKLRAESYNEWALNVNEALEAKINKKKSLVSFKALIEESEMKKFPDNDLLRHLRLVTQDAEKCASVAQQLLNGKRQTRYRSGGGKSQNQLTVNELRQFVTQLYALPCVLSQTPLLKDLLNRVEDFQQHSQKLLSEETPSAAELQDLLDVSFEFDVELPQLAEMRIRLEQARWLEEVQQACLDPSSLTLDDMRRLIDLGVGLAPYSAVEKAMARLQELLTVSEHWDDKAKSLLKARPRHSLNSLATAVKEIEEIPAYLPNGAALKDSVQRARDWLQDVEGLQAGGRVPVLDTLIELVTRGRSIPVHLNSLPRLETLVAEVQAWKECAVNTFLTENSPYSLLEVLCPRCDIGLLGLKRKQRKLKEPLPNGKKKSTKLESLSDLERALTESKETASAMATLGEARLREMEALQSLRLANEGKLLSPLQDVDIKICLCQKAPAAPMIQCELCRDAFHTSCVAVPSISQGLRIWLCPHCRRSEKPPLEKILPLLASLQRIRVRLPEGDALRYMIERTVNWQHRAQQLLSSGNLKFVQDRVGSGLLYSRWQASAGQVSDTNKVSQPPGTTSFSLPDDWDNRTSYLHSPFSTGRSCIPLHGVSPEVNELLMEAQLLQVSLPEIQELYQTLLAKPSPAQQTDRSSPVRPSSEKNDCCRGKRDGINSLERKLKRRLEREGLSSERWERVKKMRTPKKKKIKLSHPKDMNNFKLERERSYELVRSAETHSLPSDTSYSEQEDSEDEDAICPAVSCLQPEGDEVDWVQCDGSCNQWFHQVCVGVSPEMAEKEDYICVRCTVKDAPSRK

Take `O=C(O)c1cnc2cc(C(O)c3ccccc3)ccn12` (centres unmarked) [Example 102]: the IC50 was greater than 1000 nM.

For `CC(O)c1ccn2c(C(=O)O)cnc2c1` (centres unmarked) [Example 103], the IC50 was greater than 1000 nM.

Consider `O=C(O)c1cnc2cc(Oc3ccccc3)ccn12` [Example 104], for which the IC50 is greater than 1000 nM.

In turn, `O=C(O)c1cnc2cc(Oc3ccc4ccncc4c3)ccn12` [Example 105] registered an IC50 greater than 1000 nM.

The compound `CC(O)c1cc(C(=O)O)n2ccnc2c1` (centres unmarked) [Example 106] gave an IC50 greater than 1000 nM.

In turn, `COc1ccccc1Oc1cc(C(=O)O)n2ccnc2c1` [Example 108] returned an IC50 greater than 1000 nM.

Consider `O=C(O)c1cc(Oc2ccc3ccncc3c2)cc2nccn12` [Example 109], for which the IC50 was greater than 1000 nM.

As for `COc1cc(Cl)ccc1CNc1ccc2nccn2c1C#N` [Example 110], the IC50 was greater than 1000 nM.

`COc1cc(Cl)ccc1CNc1ccc2nccn2c1-c1nn[nH]n1` [Example 111] returned an IC50 greater than 1000 nM.

Consider `COc1ccc(Cl)cc1CNc1ccc2ncc(C(=O)O)n2c1` [Example 112], for which the IC50 was greater than 1000 nM.

`O=C(O)c1cc(-c2cn(Cc3ccc(Cl)cc3)cn2)cc2nccn12` [Example 113] showed an IC50 of no more than 500 nM.

Regarding `COc1ccc(Cl)cc1CNc1ccc2nc(C)cn2c1C(=O)O` [Example 114], the IC50 was greater than 1000 nM.

In turn, `O=C(O)c1c(NCC2CCCc3cc(Oc4ccccc4)ccc32)ccc2nccn12` (centres unmarked) [Example 115] returned an IC50 greater than 1000 nM.

The compound `COc1cc(C)ccc1-c1ccc2ncc(C(=O)O)n2c1` [Example 116] gave an IC50 greater than 1000 nM.

With `COc1ccc(Cl)cc1CNc1cc(C(=O)O)n2ccnc2c1` [Example 117], the IC50 is greater than 1000 nM.

`COc1cc(Cl)ccc1CNc1ccc2ncc(C(=O)O)n2c1` [Example 118] displayed an IC50 greater than 1000 nM.

In turn, `COc1cc(Cl)ccc1CNc1ccc2nc(C)cn2c1C(=O)O` [Example 119] displayed an IC50 greater than 1000 nM.

The compound `COc1cc(Cl)ccc1COc1ccc2nccn2c1C(=O)O` [Example 120] registered an IC50 greater than 1000 nM.

As for `O=C(O)c1c(NCc2cccc3c2CNCC3)ccc2nccn12` [Example 121], the IC50 is greater than 1000 nM.

The compound `COc1cc(Cl)ccc1CNc1cc(C(=O)O)n2ccnc2c1` [Example 122] had an IC50 greater than 1000 nM.

In the case of `COc1cc(Cl)ccc1COc1cc(C(=O)O)n2ccnc2c1` [Example 123], the IC50 was greater than 1000 nM.

The compound `CCN1CCN(c2ccc(CNc3ccc4nccn4c3C(=O)O)c3c2CCCC3)CC1` [Example 124] yielded an IC50 greater than 1000 nM.

As for `COc1ccc(-c2cccc(CNc3ccc4nccn4c3C(=O)O)c2)cc1` [Example 125], the IC50 was greater than 1000 nM.

`O=C(O)c1c(NCc2cccc(-c3cccnc3)c2)ccc2nccn12` [Example 126] showed an IC50 of 500 to 1000 nM.

Turning to `Cn1nccc1-c1cccc(CNc2ccc3nccn3c2C(=O)O)c1` [Example 127], the IC50 was no more than 500 nM.

Take `N#Cc1cccc(CNc2ccc3nccn3c2C(=O)O)c1` [Example 128]: the IC50 was greater than 1000 nM.

In turn, `COc1cc(Cl)ccc1OCc1cc(C(=O)O)n2ccnc2c1` [Example 129] registered an IC50 of no more than 500 nM.

For `COc1cc(CN2CCC(NCCc3ccccc3)CC2)ccc1CNc1ccc2nccn2c1C(=O)O` [Example 130], the IC50 lay in the range of 500 to 1000 nM.

`CN(C)Cc1ccccc1CNc1ccc2nccn2c1C(=O)O` [Example 131] registered an IC50 greater than 1000 nM.

In turn, `O=C(O)c1cc(OCCN2CCC(c3cc(Cl)cc(Cl)c3)CC2)cc2nccn12` [Example 132] came in with an IC50 greater than 1000 nM.

As for `CN(Cc1ccc(F)cc1)Cc1ccc(Oc2cc(C(=O)O)n3ccnc3c2)cc1` [Example 134], the IC50 is greater than 1000 nM.

`O=C(O)c1cc(CCCN2CCC(c3cc(Cl)cc(Cl)c3)CC2)cc2nccn12` [Example 135] had an IC50 of no more than 500 nM.
